The source made the active and inactive calls. No cut-off for these calls is given here.

The values below come from ChEMBL document CHEMBL5712086, “Spatially clustered loci with multiple enhancers are frequent targets of HIV-1 integration” (Nat Commun, 2019).

For assay [1], the system named is CD4+ T cell. Description: Effect on spatial localization of recurrent integration genes of HIV-1 in human CD+ T cells at 500 nM incubated for 6 hrs followed by infection for 72 hrs by 3D immuno-DNA FISH assay. The format is functional, cell-based. The note with it: Human immunodeficiency virus 1, time 78.0 hrs.
Assay [2] has as its target T1, Bromodomain and extra-terminal motif (BET) (Homo sapiens) (UniProt P25440+O60885+Q58F21+Q15059). The note with it: CD4+ T cell, dose 500.0 nM, time 20.0 hrs.
Assay [3] deals with CD4+ T cell. Nature of the assay: Effect on HIV-1 insertion biases in human CD+ T cells assessed as insertion rate per chromosome at 500 nM incubated for 6 hrs. The assay is classed as functional, cell-based. The note with it: Human immunodeficiency virus 1.
Assay [4] has as its target T1, Bromodomain and extra-terminal motif (BET) (Homo sapiens). The note with it: CD4+ T cell, dose 500.0 nM, time 20.0 hrs. The source holds these as a separate data set.
Assay [5] concerns CD4+ T cell. Nature of the assay: Upregulation of protein-coding genes proximal to super enhancers in activated human CD+ T cells at 500 nM incubated for 6 hrs by transcriptional profiling relative to coding genes without SE. The format is functional, cell-based.
Assay [6] deals with CD4+ T cell. Nature of the assay: Effect on spatial localization of HIV-1 in human CD+ T cells at 500 nM incubated for 6 hrs followed by infection for 72 hrs by 3D immuno-DNA FISH assay. The format is functional, cell-based. Conditions: Human immunodeficiency virus 1, time 78.0 hrs.
The test system of assay [7] is CD4+ T cell. Nature of the assay: Down regulation of protein-coding genes proximal to super enhancers in activated human CD+ T cells at 500 nM incubated for 6 hrs by transcriptional profiling relative to coding genes without SE. The assay is classed as functional, cell-based.

With `Cc1sc2c(c1C)C(c1ccc(Cl)cc1)=N[C@@H](CC(=O)OC(C)(C)C)c1nnc(C)n1-2`, the result in the assay with CD4+ T cell [1], in the assay on CD4+ T cell [3] and with CD4+ T cell [6] was inactive. The inhibition entry in assay [2] and in assay [4] was “Active” in each case. Besides, the result in the assay on CD4+ T cell [5] and in the assay on CD4+ T cell [7] was Active.
